Measurements taken from the NIST ThermoML archive (doi:10.1021/je101230a).
Numbers after ± are expanded uncertainties.

Conditions: Crystal; DTA

CCc1ccc(CCOc2ccc(CC3SC(=O)NC3=O)cc2)nc1.Cl (stereo unspecified)
Normal melting temperature: 198.00 ± 1.1 °C
